The source made the active and inactive calls.
How the values were obtained:
[1] = target: T1, High affinity choline transporter 1 (Homo sapiens, UniProt Q9GZV3); test: CHT inhibitors, dose response, cell-based, 10-point CRC, membrane potential dye (AID 588401); assay type: functional;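 note: membrane potential dye fluorescence of choline-evoked depolarization via CHT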
T1 sequence (Q9GZV3 whole entry): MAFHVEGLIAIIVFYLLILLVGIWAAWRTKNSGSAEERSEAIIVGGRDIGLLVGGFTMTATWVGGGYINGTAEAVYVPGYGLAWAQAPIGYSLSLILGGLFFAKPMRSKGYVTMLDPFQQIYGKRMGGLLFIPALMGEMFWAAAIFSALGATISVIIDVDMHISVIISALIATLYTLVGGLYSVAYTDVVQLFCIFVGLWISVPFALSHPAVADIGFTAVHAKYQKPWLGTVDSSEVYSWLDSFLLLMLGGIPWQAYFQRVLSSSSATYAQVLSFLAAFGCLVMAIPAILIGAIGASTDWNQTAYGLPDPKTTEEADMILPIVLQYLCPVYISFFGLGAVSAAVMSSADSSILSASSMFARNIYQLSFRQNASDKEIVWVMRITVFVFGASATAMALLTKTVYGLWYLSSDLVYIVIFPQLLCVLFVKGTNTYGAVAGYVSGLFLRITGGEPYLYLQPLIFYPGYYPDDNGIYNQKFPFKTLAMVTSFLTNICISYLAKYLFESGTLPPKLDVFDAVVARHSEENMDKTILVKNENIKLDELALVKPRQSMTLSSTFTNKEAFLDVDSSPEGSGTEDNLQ

[2] = target: T1, High affinity choline transporter 1; test: CHT inhibitors, dose response, cell-based, 5-point CRC, membrane potential dye (AID 504840); assay type: functional
[3] = target: Protein disulfide-isomerase (Homo sapiens, UniProt P07237); test: PDI inhibitors, insulin aggregation turbidity, dose response, biochemical, absorbance, cherry-picked samples (AID 602350); assay type: functional
[4] = cytotoxicity in HPDE-C7 cells, cell-based, fluorescence, HTS (AID 430); assay type: functional; conditions: Homo sapiens
Paired box protein Pax-8 = Paired box protein Pax-8 (Homo sapiens, UniProt Q06710); test: inhibitors of PAX8-driven TPO luciferase reporter, dose response, RMG-I cells, cherry-pick (AID 687027); assay type: functional, cell-based;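 note: luciferase reporter driven by Pax8 target thyroperoxidase promoter measured by SteadyGlo luminescence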
[5] = cytotoxicity in KRAS-transformed pancreatic duct cells, primary screen, cell-based, fluorescence, HTS (AID 431); assay type: functional; conditions: Homo sapiens;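 note: cell line used: HPDE-C7K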
[6] = inhibitors of PGC1a acetylation in cells, dose response, cell-based, cherry-picked samples (AID 720514); assay type: functional;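 note: potency may reflect raised or lowered acetylation signal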
Orexin receptor type 2 [7] = target: T2, Orexin receptor type 2 (Homo sapiens, UniProt O43614); test: Counterscreen assay for antagonists of the orexin 1 receptor (OX1R; HCRTR1): Homogeneous Time Resolved Fluorescence (HTRF)-based cell-based dose response assay for antagonists of the orexin 2 receptor (OX2R; HCRTR2), run by assay provider.; assay type: functional
T2 sequence (O43614 whole entry): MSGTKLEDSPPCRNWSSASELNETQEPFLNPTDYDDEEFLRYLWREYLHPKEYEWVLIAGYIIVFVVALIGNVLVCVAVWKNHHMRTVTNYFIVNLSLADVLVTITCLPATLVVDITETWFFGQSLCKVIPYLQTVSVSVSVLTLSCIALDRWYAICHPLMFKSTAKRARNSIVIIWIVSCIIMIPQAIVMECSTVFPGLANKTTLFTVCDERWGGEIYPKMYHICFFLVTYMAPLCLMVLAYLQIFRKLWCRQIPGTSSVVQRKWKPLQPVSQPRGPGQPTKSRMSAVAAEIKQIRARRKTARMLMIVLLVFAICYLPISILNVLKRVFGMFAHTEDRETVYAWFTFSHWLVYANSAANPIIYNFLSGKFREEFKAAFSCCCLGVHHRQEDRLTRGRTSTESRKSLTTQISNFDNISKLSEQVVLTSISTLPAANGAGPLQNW

[8] = target: T3, Orexin/Hypocretin receptor type 1 (Homo sapiens, UniProt O43613); test: Homogeneous Time Resolved Fluorescence (HTRF)-based cell-based high throughput dose response assay for antagonists of the orexin 1 receptor (OX1R; HCRTR1). [Related pubchem assays (depositor defined):AID434989, AID435008, AID463079, AID485270, AID492963, AID492964, AID492965, AID493232, AID504717, AID504718]; assay type: functional
T3 sequence (O43613 whole entry): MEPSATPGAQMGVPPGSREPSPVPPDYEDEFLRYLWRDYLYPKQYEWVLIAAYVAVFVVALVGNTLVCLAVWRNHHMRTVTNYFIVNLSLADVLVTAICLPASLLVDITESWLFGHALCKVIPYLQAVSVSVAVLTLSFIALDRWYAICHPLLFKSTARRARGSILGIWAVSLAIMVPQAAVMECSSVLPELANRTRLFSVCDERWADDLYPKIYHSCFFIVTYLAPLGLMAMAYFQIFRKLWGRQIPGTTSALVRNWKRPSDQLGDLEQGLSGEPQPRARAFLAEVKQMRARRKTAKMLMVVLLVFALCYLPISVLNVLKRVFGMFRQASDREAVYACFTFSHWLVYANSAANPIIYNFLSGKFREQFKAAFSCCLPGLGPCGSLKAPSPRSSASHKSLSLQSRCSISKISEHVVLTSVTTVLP

CHO-K1 = test: (§1) Counterscreen for antagonists of the orexin 1 receptor (OX1R; HCRTR1): Homogeneous time resolved fluorescence (HTRF)-based cell-based dose response assay to identify antagonists of the parental CHO-K1 cell line. [Related pubchem assays (depositor defined):AID434989, AID435008, AID463079, AID485270, AID492963, AID492964, AID492965, AID493232, AID504699, AID504701]; assay type: functional; conditions: Cricetulus griseus
[9] = target: T3, Orexin/Hypocretin receptor type 1; test: Fluorescence-based cell-based high throughput dose response assay for antagonists of the orexin 1 receptor (OX1R; HCRTR1). [Related pubchem assays (depositor defined):AID434989, AID435008, AID463079, AID485270, AID492963, AID492964, AID492965, AID493232, AID504717, AID504718]; assay type: functional
CHO = test: cytotoxicity in TLR9-MyD88 CHO cells, dose response, cytotoxicity control for TLR9-MyD88 binding inhibitor project, cell-based, luminescence (AID 588339); assay type: functional, hamster; conditions: Cricetulus griseus;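 note: CHO cells stably coexpressing TLR9 and MyD88 fusions from primary screen; compound exposure lasted 48 hours before viability readout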
BJ [10] = test: cytotoxicity toward BJ-TERT fibroblasts, dose response, cell-based, RAS-independent, luminescence (AID 1933); assay type: functional; conditions: Homo sapiens
[11] = cytotoxicity toward DRD oncogenic fibroblasts, dose response, cell-based, non-viral oncogenic, luminescence (AID 1934); assay type: functional; conditions: Homo sapiens
Beta Lactamase = Beta Lactamase (Pseudomonas aeruginosa, UniProt Q932Y6); test: beta-lactamase reporter inhibitor potency, dose response, artefact control for TLR9-MyD88 binding inhibitor project, BLA reporter cells, FRET fluorescence (AID 588341); assay type: cell-based;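 note: cell based assay in CHO-K1 cells stably expressing beta-lactamase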
[12] = as §1, with “Fluorescence-based” for “Homogeneous time resolved fluorescence (HTRF)-based”, “cell-based high throughput” for “cell-based”, “CHO” for “CHO-K1”; assay type: functional
BJ [13] = test: cells; assay type: functional, cell-based; conditions: Homo sapiens
Orexin receptor type 2 [14] = target: T2, Orexin receptor type 2; test: Counterscreen assay for antagonists of the orexin 1 receptor (OX1R; HCRTR1): Fluorescence-based cell-based dose response assay for antagonists of the orexin 2 receptor (OX2R; HCRTR2), run by assay provider.; assay type: functional
[15] = Vero cell cytotoxicity, cytotoxicity control for M. tuberculosis inhibitor project, purified and synthesized samples, set 3 (AID 504684); assay type: functional
cells = assay type: functional
BJ [16] = test: cytotoxicity toward BJ-TERT-LT-ST fibroblasts, dose response, cell-based, RAS-independent, luminescence (AID 1935); assay type: functional; conditions: Homo sapiens;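 note: BJ fibroblasts immortalized with TERT plus LT and ST oncogenes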

Protein disulfide-isomerase, sequence (P07237 whole entry): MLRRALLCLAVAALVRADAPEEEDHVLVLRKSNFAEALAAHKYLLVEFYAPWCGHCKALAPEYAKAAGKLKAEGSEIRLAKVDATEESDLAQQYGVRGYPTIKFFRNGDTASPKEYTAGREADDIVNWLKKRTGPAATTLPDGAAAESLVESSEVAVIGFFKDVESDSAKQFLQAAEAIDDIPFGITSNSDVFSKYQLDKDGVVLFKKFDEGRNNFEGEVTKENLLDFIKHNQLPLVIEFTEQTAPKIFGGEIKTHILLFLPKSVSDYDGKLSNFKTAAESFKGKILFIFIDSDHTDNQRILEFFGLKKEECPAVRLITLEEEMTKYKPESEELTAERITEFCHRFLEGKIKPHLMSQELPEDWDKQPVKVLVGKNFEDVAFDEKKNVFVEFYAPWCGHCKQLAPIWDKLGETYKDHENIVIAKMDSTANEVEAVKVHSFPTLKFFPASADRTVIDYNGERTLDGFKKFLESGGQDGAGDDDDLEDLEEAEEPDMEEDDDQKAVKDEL
Beta Lactamase, sequence (Q932Y6 whole entry): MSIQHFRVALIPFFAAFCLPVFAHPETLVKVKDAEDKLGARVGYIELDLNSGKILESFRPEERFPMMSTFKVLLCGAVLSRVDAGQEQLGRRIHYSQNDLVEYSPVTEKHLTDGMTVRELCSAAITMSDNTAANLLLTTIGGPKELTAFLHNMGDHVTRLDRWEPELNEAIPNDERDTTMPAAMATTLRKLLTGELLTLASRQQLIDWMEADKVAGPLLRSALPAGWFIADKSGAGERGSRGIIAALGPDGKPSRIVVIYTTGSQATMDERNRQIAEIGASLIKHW
Paired box protein Pax-8, sequence (Q06710 whole entry): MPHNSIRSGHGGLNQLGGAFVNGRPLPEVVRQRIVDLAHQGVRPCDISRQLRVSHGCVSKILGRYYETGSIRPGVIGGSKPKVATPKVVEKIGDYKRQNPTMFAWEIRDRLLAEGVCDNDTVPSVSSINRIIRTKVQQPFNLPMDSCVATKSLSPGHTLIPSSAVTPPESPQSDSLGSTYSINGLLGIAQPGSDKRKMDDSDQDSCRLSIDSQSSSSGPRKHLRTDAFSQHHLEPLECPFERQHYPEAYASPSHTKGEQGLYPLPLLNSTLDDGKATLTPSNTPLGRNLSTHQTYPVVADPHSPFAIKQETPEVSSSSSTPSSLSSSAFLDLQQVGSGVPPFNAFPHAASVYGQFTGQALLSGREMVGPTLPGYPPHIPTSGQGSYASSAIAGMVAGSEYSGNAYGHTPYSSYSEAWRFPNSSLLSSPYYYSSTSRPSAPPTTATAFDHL

CCOCCn1c(CN2CCN(c3ccc(F)cc3)CC2)nc2c1c(=O)n(C)c(=O)n2C
active: IC50 [1] 4.01 µM | IC50 [2] 7.77 µM

Cc1ccc(S(=O)(=O)CCC(=O)c2ccc(O)cc2O)cc1
active: AC50 [3] 15.6 µM | EC50 [4] 9.12 µM | AC50 (Paired box protein Pax-8) 4.59 µM | EC50 [5] 8.8 µM

Cn1cnnc1Sc1ccc(/C=C/C(=O)c2ccc(O)cc2)cc1[N+](=O)[O-]
active: AC50 [3] 0.422 µM | AC50 [6] 8.44 µM

CCN(CC)c1ccc2cc(-c3nc4ccccc4n3C)c(=O)oc2c1
inactive: IC50 (Orexin receptor type 2 [7]) > 50 µM | IC50 (CHO-K1) > 66.2 µM | IC50 (CHO) 29.4 µM | IC50 [12] > 49.8 µM | IC50 (Orexin receptor type 2 [14]) 32 µM
active: IC50 [8] 1.14 µM | IC50 [9] 1.77 µM | EC50 (BJ [10]) < 0.12 µM | EC50 [11] 0.185 µM | IC50 (Beta Lactamase) 2.56 µM | EC50 (BJ [13]) 0.345 µM

COC(=O)CCc1nc2c(C#N)c(-c3ccc(Cl)cc3)ccn2n1
active: CC50 [15] > 100 µM | IC50 (cells) 5.43 µM

Cc1ccc(Cl)c(NC(=O)COC(=O)c2ccccc2C(=O)c2ccc(Cl)c([N+](=O)[O-])c2)c1Cl
inactive: IC50 (CHO) 12.6 µM | IC50 (Beta Lactamase) > 49.8 µM
active: EC50 (BJ [10]) 2.71 µM | EC50 [11] 7.58 µM
inconclusive: EC50 (BJ [16]) 3.87 µM | EC50 (BJ [13]) 16.8 µM

Source: ChEMBL document CHEMBL1201862, “PubChem BioAssay data set” (2004)
